This is an account of results in US7915402B2, “Antioxidant inflammation modulators: oleanolic acid derivatives with saturation in the C-ring” (Reata Pharmaceuticals, Inc., priority 2008, dated 2011).

One data set has as its system mice. Conditions: sesame oil, N=4.
A further data set has as its system RAW264.7 macrophages. Description: Cell viability, WST-1 reagent. The format is cell-based, mouse. To be noted: Mus musculus, RAW264.7 (20 ng/ml IFNγ). How it is done:
(§1) FIGS. 1-8 and 32-34. Inhibition of NO Production. RAW264.7 macrophages were pre-treated with DMSO or drugs at various concentrations (nM) for 2 hours, then treated with 20 ng/ml IFNγ for 24 hours. NO concentration in media was determined using a Griess reagent system; cell viability was determined using WST-1 reagent.
(§2) Nitric Oxide production and cell viability. RAW264.7 macrophages were pre-treated with DMSO or drugs for 2 hours, then treated with recombinant mouse IFNγ (Sigma) for 24 hours. NO concentration in media was determined using the Griess reagent system (Promega). Cell viability was determined using WST-1 reagent (Roche).
(Tetrazolium assays rely on reduction of a dye to a coloured formazan, in cell work by metabolically active cells.)

A further data set concerns Ferritin heavy chain. Description: Induction of ferritin heavy chain mRNA (qPCR). The format is cell-based, human. Conditions: MDA-MB-435 cells, 16 hours. On the procedure: FIG. 24. Induction of Ferritin Heavy Chain. MDA-MB-435 human melanoma cells were treated with vehicle (DMSO) or the indicated compounds and concentrations for 16 hours. Ferritin heavy chain mRNA levels were quantified using qPCR and were normalized relative to a DMSO-treated sample run in parallel. Values are averages of duplicate wells.
(§3) Nrf2 target gene induction. MDA-MB-435 human melanoma cells were treated with vehicle (DMSO) or the indicated compounds and concentrations for 16 hours. HO-1, thioredoxin reductase-1 (TrxR1), γ-glutamylcysteine synthetase (γ-GCS), and ferritin heavy chain mRNA levels were quantified using qPCR and were normalized relative to a DMSO-treated sample run in parallel. Values are averages of duplicate wells. Primer sequences are as follows.
(In qPCR the cycle at which signal appears reflects the starting amount.)

For the next data set, the system named is iNOS. Put plainly: iNOS suppression, Western blot. The format is cell-based, mouse. To be noted: RAW264.7 (20 ng/ml IFNγ). A general note: Immunoblotting shows a protein as a band on a membrane.
The subject of data set [1] is γ-glutamylcysteine synthetase (γ-GCS). Description: Nrf2 target gene induction, γ-GCS mRNA (qPCR). The class given is cell-based, human. Conditions: MDA-MB-435 cells. How it is done:
(§4) FIG. 21. Induction of HO-1, TrxR1 and γ-GCS. MDA-MB-435 human melanoma cells were treated with vehicle (DMSO) or the indicated compounds and concentrations for 16 hours. HO-1, thioredoxin reductase-1 (TrxR1), and γ-glutamylcysteine synthetase (γ-GCS) mRNA levels were quantified using qPCR and were normalized relative to a DMSO-treated sample run in parallel. Values are averages of duplicate wells.
FIG. 23. Induction of γ-GCS. MDA-MB-435 human melanoma cells were treated with vehicle (DMSO) or the indicated compounds and concentrations for 16 hours. γ-glutamylcysteine synthetase (γ-GCS) mRNA levels were quantified using qPCR and were normalized relative to a DMSO-treated sample run in parallel. Values are averages of duplicate wells.
as §3

For data set [2], the system named is IFNγ-induced NO production in RAW264.7 macrophages. Description: Suppression of IFNγ-induced NO production (Griess reagent). To be noted: Mus musculus; RAW264.7, 20 ng/ml IFNγ 24 h, 2 h pre-treatment. The format is cell-based, mouse. On the procedure:
as §1, §2

For the next data set, the system named is Sprague-Dawley rats. Conditions: Sprague-Dawley rats, 1,500 mg/m^2/day for 14 days.
The test system of another data set is NQO1. Put plainly: Nrf2 target gene induction, NQO1. The format is cell-based, human. To be noted: MDA-MB-435 cells, 250 nM; fold induction above DMSO control.
Data set [3] concerns thioredoxin reductase-1 (TrxR1). Description: Nrf2 target gene induction, TrxR1 mRNA (qPCR). To be noted: MDA-MB-435 cells. The class given is cell-based, human. On the procedure: as §4
FIG. 22. Induction of TrxR1. MDA-MB-435 human melanoma cells were treated with vehicle (DMSO) or the indicated compounds and concentrations for 16 hours. Thioredoxin reductase-1 (TrxR1) mRNA levels were quantified using qPCR and were normalized relative to a DMSO-treated sample run in parallel. Values are averages of duplicate wells. Compounds 401, 402-19 and 402-53 are comparison compounds (see Example 1).
as §3

In another data set the test system is HO-1. Description: Nrf2 target gene induction, HO-1 mRNA (qPCR). The format is cell-based, human. To be noted: MDA-MB-435 cells. How it is done:
FIGS. 17-20. Induction of HO-1. MDA-MB-435 human melanoma cells were treated with vehicle (DMSO) or the indicated compounds and concentrations for 16 hours. HO-1 mRNA levels were quantified using qPCR and were normalized relative to a DMSO-treated sample run in parallel. Values are averages of duplicate wells.
as §4, §3

Data set [4] in a line: Triterpenoid levels in mouse brain after feeding in diet (LC/MS). The class given is in vivo. Conditions: CD-1 mice, 200 or 400 mg/kg diet for 3.5 days. How it is done: CD-1 mice were fed either 200 or 400 mg/kg diet of either TP-319 or TP-500 for 3.5 days, and TP levels in the brains of the mice were analyzed by LC/MS. The structures of TP-319 and TP-500 are shown below.

Where [5] appears, read: 250 nM, fold induction above DMSO control.
Where [6] appears, read: 400 nM, percent of induction observed for 402.

Structures are written as SMILES. Where two headings read alike, the source gives them in different places.

For orientation: IC50 means the point on the concentration scale where inhibition reaches its midpoint. For `COC(=O)[C@]12CCC(C)(C)C[C@H]1[C@H]1C(=O)CC3[C@@]4(C)C=C(C#N)C(=O)C(C)(C)[C@@H]4CC[C@@]3(C)[C@]1(C)CC2` (stereo partly drawn) [Compound 63101, (4aS,6aR,6bR,8aR,12aR,14aR,14bS)-methyl 11-cyano-2,2,6a,6b,9,9,12a-heptamethyl-10,14-dioxo-1,2,3,4,4a,5,6,6a,6b,7,8,8a,9,10,12a,12b,13,14,14a,14b-icosahydropicene-4a-carboxylate], the “Number of Deaths” value in the data set on mice (oral gavage QDx14, 10 mg/kg) was 0; with mice (oral gavage QDx14, 50 mg/kg), 0; in the data set with mice (oral gavage QDx14, 100 mg/kg), 0; in the data set with mice (oral gavage QDx14, 250 mg/kg), 0. Further, the half-maximal inhibitory concentration (IC50) in the data set with RAW264.7 macrophages is 200 nM; in data set [2], around 12 nM. For the same compound, in the data set on Ferritin heavy chain, the “Ferritin heavy chain mRNA induction: concentration needed compared with unsaturated counterpart (402, 404)” value is “higher concentrations”. The “iNOS suppr. WB” value in the data set with iNOS was above 90%. Moreover, the results for the γ-GCS induction in data set [1] (setting [5]) and in [1] (setting [6]) were 5 fold and 53%, respectively. Further, the “γ-GCS mRNA induction: concentration needed compared with unsaturated counterpart (402, 404)” value in data set [1] (16 hours) was “higher concentrations”. In addition, the “highest dose without significant toxicity relative to the MTD of RTA 402 in this species” value in the data set on Sprague-Dawley rats came out at 50 fold. For the same compound, the NQO1 induction with NQO1 is 2 fold. This compound also had a TrxR1 induction in data set [3] (setting [6]) of 47%. For the same compound, the “TrxR1 mRNA induction: concentration needed compared with unsaturated counterpart (402, 404)” value in [3] (16 hours) is given as “higher concentrations”. Besides, the results for the HO-1 induction in the data set with HO-1 (setting [5]) and in the data set with HO-1 (setting [6]) were 3 fold and 4%, respectively.
Regarding `CC1(C)CC[C@]2(C(=O)NCC(F)(F)F)CC[C@]3(C)[C@H](C(=O)C=C4[C@@]5(C)C=C(C#N)C(=O)C(C)(C)[C@@H]5CC[C@]43C)[C@@H]2C1` [TP-500], in data set [4], the “level detected in mouse brain compared with CDDO-EA (TP-319)” value is given as “Higher Levels”.
